The values below come from patent publication US12544382B2, “2, 4, 6-tri-substituted pyrimidine compound as ATR kinase inhibitor” (BEIJING TIDE PHARMACEUTICAL CO., LTD., priority 2019, dated 2026).

Molecules are shown by their SMILES.

Chain of ATR kinase (Q13535 whole entry): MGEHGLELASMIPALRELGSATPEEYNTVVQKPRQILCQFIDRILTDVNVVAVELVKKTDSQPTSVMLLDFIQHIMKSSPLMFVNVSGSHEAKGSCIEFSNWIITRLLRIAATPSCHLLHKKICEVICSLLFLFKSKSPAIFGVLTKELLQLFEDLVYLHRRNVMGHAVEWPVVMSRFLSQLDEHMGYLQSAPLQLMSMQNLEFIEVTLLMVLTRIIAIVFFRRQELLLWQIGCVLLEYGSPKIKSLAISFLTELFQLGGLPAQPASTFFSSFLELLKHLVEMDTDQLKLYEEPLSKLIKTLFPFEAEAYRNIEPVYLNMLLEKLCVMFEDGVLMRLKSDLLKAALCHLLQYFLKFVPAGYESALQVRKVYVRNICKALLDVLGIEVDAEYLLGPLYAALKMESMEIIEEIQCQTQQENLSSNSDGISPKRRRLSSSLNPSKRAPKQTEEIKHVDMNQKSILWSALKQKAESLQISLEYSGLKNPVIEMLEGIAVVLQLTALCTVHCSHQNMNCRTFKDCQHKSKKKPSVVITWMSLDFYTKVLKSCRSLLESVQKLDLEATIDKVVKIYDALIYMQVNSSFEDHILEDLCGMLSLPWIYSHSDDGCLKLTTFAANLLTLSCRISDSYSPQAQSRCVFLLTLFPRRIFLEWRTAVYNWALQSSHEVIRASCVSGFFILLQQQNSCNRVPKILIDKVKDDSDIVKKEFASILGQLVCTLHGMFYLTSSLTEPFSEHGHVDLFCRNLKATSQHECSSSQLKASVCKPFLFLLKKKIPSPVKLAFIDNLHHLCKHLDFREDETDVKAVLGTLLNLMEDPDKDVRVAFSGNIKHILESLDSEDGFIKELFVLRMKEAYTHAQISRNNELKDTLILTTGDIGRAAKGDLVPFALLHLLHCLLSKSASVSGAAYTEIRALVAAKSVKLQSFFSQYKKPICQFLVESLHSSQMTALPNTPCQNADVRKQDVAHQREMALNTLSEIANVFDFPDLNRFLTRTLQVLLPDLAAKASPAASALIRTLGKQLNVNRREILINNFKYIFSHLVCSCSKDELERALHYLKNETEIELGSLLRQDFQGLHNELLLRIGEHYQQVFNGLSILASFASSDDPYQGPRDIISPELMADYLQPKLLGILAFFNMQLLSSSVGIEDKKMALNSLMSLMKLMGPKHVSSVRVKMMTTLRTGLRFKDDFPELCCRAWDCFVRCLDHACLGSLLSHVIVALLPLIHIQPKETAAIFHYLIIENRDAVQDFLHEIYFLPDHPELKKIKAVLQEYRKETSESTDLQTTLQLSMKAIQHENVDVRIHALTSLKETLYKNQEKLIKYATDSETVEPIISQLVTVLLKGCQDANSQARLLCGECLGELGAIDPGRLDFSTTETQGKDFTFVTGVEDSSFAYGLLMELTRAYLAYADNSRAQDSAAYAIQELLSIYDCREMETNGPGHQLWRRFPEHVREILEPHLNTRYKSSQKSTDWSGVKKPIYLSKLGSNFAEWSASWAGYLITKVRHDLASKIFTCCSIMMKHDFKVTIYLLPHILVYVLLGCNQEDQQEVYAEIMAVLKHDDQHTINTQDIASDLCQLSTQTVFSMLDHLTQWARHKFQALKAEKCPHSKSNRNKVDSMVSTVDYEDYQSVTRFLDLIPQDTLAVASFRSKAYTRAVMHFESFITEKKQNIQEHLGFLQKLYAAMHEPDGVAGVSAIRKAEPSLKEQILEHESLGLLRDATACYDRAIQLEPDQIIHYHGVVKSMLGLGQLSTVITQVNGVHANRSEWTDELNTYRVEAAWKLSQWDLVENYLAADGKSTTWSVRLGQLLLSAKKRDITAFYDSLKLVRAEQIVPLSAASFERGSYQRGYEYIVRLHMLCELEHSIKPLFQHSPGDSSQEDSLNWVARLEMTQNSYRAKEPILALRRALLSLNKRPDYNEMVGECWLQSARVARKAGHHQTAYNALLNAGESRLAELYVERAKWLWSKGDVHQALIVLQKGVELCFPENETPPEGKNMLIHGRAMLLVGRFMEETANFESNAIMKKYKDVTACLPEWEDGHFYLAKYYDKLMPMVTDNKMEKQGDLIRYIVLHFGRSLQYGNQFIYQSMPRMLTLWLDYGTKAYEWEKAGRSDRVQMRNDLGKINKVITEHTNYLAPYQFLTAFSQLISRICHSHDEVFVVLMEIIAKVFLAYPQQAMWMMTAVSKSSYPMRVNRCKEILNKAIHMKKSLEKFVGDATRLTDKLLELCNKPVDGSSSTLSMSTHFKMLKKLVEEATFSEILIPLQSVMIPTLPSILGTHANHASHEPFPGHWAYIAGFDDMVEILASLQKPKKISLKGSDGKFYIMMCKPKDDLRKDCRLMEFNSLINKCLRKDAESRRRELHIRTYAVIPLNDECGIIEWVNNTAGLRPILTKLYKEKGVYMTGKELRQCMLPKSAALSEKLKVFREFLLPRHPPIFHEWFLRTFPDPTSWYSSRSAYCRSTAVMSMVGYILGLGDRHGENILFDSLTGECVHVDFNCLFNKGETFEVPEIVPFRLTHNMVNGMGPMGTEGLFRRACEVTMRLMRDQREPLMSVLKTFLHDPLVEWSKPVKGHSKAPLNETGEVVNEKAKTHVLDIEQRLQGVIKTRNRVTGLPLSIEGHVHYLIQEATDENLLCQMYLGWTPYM
Chain of ATR kinase (Q8WXE1 whole entry partner): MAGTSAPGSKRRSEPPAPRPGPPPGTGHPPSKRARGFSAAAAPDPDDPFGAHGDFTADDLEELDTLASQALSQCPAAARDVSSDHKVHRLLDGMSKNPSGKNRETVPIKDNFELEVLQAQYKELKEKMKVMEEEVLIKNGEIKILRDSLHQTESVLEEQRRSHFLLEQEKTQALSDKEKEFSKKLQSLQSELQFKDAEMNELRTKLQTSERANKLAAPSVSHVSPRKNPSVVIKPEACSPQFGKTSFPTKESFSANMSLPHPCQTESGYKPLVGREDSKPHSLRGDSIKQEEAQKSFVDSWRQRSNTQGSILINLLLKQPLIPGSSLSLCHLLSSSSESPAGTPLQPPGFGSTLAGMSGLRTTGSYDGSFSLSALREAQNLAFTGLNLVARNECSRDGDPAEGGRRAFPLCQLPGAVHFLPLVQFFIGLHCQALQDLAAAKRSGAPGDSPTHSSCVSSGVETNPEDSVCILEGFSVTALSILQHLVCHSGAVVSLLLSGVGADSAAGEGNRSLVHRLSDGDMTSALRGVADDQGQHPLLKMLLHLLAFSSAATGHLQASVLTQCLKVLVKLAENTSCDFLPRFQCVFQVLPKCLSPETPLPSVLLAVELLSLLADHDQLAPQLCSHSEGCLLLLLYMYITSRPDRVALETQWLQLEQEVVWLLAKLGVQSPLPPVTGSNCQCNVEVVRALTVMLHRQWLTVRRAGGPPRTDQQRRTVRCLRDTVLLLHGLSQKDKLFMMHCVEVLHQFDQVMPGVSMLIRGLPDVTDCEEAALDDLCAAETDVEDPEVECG

This test concerns the target ATR kinase (Homo sapiens (Human), UniProt Q13535). The experiment in a line: ATR kinase activity assay (time-resolved fluorescence, p53 substrate phosphorylation). It is filed as biochemical. The procedure:
Biotinylated protein derived from p53 (Eurofins, art. No.: 14-952) was phosphorylated with ATR kinase. The amount of phosphorylated protein was determined by time-resolved fluorescence in this assay. The amount of phosphorylated protein was detected by anti-p53-phospho-(serine 15)-K-specific antibody (Cisbio, art. No.: 61GSTDLA) and d2 labeled anti-GST antibody (Cisbio, art. No. 61P08KAE). Before the experiment, the following working solution was prepared as required: 1× reaction buffer (20 mM HEPES PH8.0, 1% glycerol, 0.01% Brij-35), dilution buffer (20 mM HEPES PH8.0, 1% glycerol, 0.01% Brij-35, 5 mM DTT and 1% BSA), stop solution (20 mM HEPES PH8.0, 1% glycerol, 0.01% Brij-35, 250 mM EDTA), detection buffer (50 mM HEPES pH7.0, 150 mM NaCl, 267 mM KF, 0.1% sodium cholate, 0.01% Tween-20, 0.0125% sodium azide). The reagents used above are purchased from Sigma or Invitrogen, except for those where the manufacturer was mentioned.
Operations are as follows:
4× gradient dilution of compound solutions was prepared with 1× reaction buffer to obtain 9 compound solutions of different concentrations, and 2.5 μL 4× gradient dilution of compound solutions was added to a 384-well analysis plate (784075, Greiner). 4× p53 substrate working solution (40 nM) was prepared with 1× reaction buffer, and 2.5 μL 4× p53 substrate working solution was added to the 384-well analysis plate. 4×ATR/ATRIP working solution (12.8 ng/μL) was prepared with dilution buffer, and 2.5 μL 4×pATR/ATRIP working solution was added to the 384-well analysis plate. 4×ATP working solution (2 mM) was prepared with deionized water, 2.5 μL 4×ATP working solution was added to the 384-well analysis plate, and incubated at room temperature in dark for 30 minutes. 5 μL stop solution was added to the 384 analysis plate. Finally, 5 μL test mixture (0.084 ng/μL Anti-phospho-p53(ser15)-K and 5 ng/μL Anti-GST-d2) was added to the 384 well analysis plate, incubated overnight at room temperature, and the fluorescence signal was detected with ENVISION (Perkinelmer) instrument (excitation wavelength: 320 nm, emission wavelength: 665 nm and 615 nm). The inhibition rate in each well was calculated by the fluorescence intensity value of each hole: ER (Emission Ratio)=(Fluorescence intensity at 665 nm/Fluorescence intensity at 615 nm); inhibition rate=(ER positive-ER test compound)/(ER positive-ER negative)×100%, the IC50 value of compounds were calculated by standard parameter fitting software (GraphPad Prism 6.0).
For `Cc1nn(C(C)C)c(C)c1-c1nc(-c2ccnc3[nH]ccc23)cc(N2CCOC[C@H]2C)n1` [Compound B6], 0.979 µM corresponded to half-maximal inhibition (IC50).
Regarding `Cc1nn(C2CCNCC2)c(C(F)(F)F)c1-c1cc(N2CCOC[C@H]2C)nc(-n2c(CO)nc3cc(F)ccc32)n1` [Compound D32], inhibition was half-maximal at 1.77 µM (IC50). Compared with the last molecule, the IC50 is about 1.8-fold higher.
The value for `Cc1nn(CCCN(C)C)c(C)c1-c1cc(N2CCOC[C@H]2C)nc(-c2ccnc3[nH]ccc23)n1` [Compound A22] was 0.081 µM; that for `Cc1nn(C)c(C)c1-c1nc(-c2ccnc3[nH]ccc23)cc(N2CCOC[C@H]2C)n1` [Compound B1] was 0.255 µM.
With `CCN1CCC(n2nc(C)c(-c3cc(N4CCOC[C@H]4C)nc(-c4ccnc5[nH]ccc45)n3)c2C)C1` (stereo partly drawn) [Compound A31], half-maximal inhibition (IC50) was put at 0.048 µM.
As to `Cc1nn(CC2CCOC2)c(C)c1-c1cc(N2CCOC[C@H]2C)nc(-c2ccnc3[nH]ccc23)n1` (stereo partly drawn) [Compound A28], the IC50 (usually the concentration needed to halve the response being measured) was 0.025 µM.
Regarding `Cc1ccc(S(=O)(=O)NCCCO)cc1-c1cc(N2CCOC[C@H]2C)nc(-c2ccnc3[nH]ccc23)n1` [Compound A40], the midpoint of inhibition, the IC50, lay at 0.05 µM.
In turn, `CSc1nc2cc(F)ccc2n1-c1nc(-c2c(C)nn(C3CCNCC3)c2C(F)(F)F)cc(N2CCOC[C@H]2C)n1` [Compound D31] showed an IC50 of 2.7 µM.
Molecule `Cc1nn(C(C)C)c(C)c1-c1cc(N2CCOC[C@H]2C)nc(-c2ccnc3[nH]ccc23)n1` [Compound A15] registered an IC50 of 0.021 µM.
In the case of `COc1ccc(S(=O)(=O)C(C)C)cc1-c1cc(N2CCOC[C@H]2C)nc(-c2ccnc3[nH]ccc23)n1` [Compound A13], the IC50 amounted to 0.066 µM.
On to `Cc1c(-c2nc(-c3ccnc4[nH]ccc34)cc(N3CCOC[C@H]3C)n2)cnn1C` [Compound B4], for which the IC50 was determined as 1.72 µM.
The value for `Cc1nn(CC2CNC2)c(C)c1-c1cc(N2CCOC[C@H]2C)nc(-c2ccnc3[nH]ccc23)n1` [Compound A18] was 0.047 µM.
`Cc1ccc(S(=O)(=O)C2CCN(C)CC2)cc1-c1cc(N2CCOC[C@H]2C)nc(-c2ccnc3[nH]ccc23)n1` [Compound A36] gave an IC50 of 0.091 µM.
For the molecule `Cc1c(-c2cc(N3CCOC[C@H]3C)nc(-c3ccc(C#N)c4[nH]ccc34)n2)c(C(F)(F)F)nn1C1CCNCC1` [Compound D5], 0.108 µM corresponded to half-maximal inhibition (IC50).
As for `C[C@@H]1COCCN1c1cc(-c2ccnc3[nH]ccc23)nc(-c2cccc(S(C)(=O)=O)c2)n1` [Compound B2], the IC50 is 4.3 µM.
In the case of `Cc1nn(CC2COC2)c(C)c1-c1cc(N2CCOC[C@H]2C)nc(-c2ccnc3[nH]ccc23)n1` [Compound A19], the IC50 came out at 0.018 µM.
The molecule `C[C@@H]1COCCN1c1cc(-c2ccnc3[nH]ccc23)nc(-c2ccc(S(C)(=O)=O)cc2)n1` [Compound B3] showed an IC50 above 10 µM.
`Cc1nn(C)c(C)c1-c1nc(-c2ccnc3[nH]ccc23)nc(N2CCOC[C@H]2C)n1` [Compound C1] yielded an IC50 of 0.041 µM.
`C[C@@H]1COCCN1c1cc(-c2cccc(S(C)(=O)=O)c2)nc(-c2ccnc3[nH]ccc23)n1` [Compound A4] registered an IC50 of 0.179 µM.
`Cc1nn(CCCO)c(C)c1-c1cc(N2CCOC[C@H]2C)nc(-c2ccnc3[nH]ccc23)n1` [Compound A11]: the IC50 is 0.015 µM.
`Cc1nn(C)c(C)c1-c1nc(-c2ccnc(C(F)F)c2)cc(N2CCOC[C@H]2C)n1` [Compound B8]: the IC50 was above 10 µM.
As to `CCN1CCC(n2nc(C)c(-c3cc(N4CCOC[C@H]4C)nc(-c4ccnc5[nH]ccc45)n3)c2C)CC1` [Compound A20], inhibition was half-maximal at 0.098 µM (IC50). That is a double-digit nanomolar value.
For `Cc1nn(CC(C)(C)O)c(C)c1-c1cc(N2CCOC[C@H]2C)nc(-c2ccnc3[nH]ccc23)n1` [Compound A12], 0.044 µM corresponded to half-maximal inhibition (IC50).
As for `Cc1nn(CC2CNC2)c(C)c1-c1nc(-c2ccnc3[nH]ccc23)cc(N2CCOC[C@H]2C)n1` [Compound B7], the IC50 worked out at 0.34 µM.
`Cc1c(-c2cc(N3CCOC[C@H]3C)nc(-c3ccnc4[nH]ccc34)n2)c(C(F)(F)F)nn1C` [Compound A8] gave an IC50 of 0.021 µM.
For `C[C@@H]1COCCN1c1cc(-c2ccc(S(C)(=O)=O)cc2)nc(-c2ccnc3[nH]ccc23)n1` [Compound A5], the IC50 was above 10 µM.
The molecule `Cc1nn(CC2CCCN(C)C2)c(C)c1-c1cc(N2CCOC[C@H]2C)nc(-c2ccnc3[nH]ccc23)n1` (stereo partly drawn) [Compound A38] registered an IC50 of 0.03 µM.
In turn, `Cc1nn(CCN(C)C)c(C)c1-c1cc(N2CCOC[C@H]2C)nc(-c2ccnc3[nH]ccc23)n1` [Compound A21] gave a 50% inhibitory concentration (IC50) of 0.056 µM. Against the preceding molecule, the IC50 is about 1.9-fold higher.
The molecule `CCNC(=O)Nc1nc2ccccc2n1-c1nc(-c2c(C)nn(C3CCNCC3)c2C(F)(F)F)cc(N2CCOC[C@@H]2C)n1` [Compound D37] returned an IC50 of 0.071 µM.
Turning to `Cc1nn(C2CCCN(C)C2)c(C)c1-c1cc(N2CCOC[C@H]2C)nc(-c2ccnc3[nH]ccc23)n1` (stereo partly drawn) [Compound A32], 0.027 µM corresponded to half-maximal inhibition (IC50).
`Cc1nn(C2CCNCC2)c(C)c1-c1cc(N2CCOC[C@H]2C)nc(-c2ccnc3[nH]ccc23)n1` [Compound A16] had an IC50 of 0.004 µM.
In turn, `CC(C)S(=O)(=O)c1ccc(C(F)(F)F)c(-c2cc(N3CCOC[C@H]3C)nc(-c3ccnc4[nH]ccc34)n2)c1` [Compound A29] came in with an IC50 of 0.631 µM.
`Cc1nn(CS(C)(=O)=O)c(C)c1-c1cc(N2CCOC[C@H]2C)nc(-c2ccnc3[nH]ccc23)n1` [Compound A41]: the IC50 is 0.011 µM.
As to `Cc1ccc(S(=O)(=O)N(C)CCN(C)C)cc1-c1cc(N2CCOC[C@H]2C)nc(-c2ccnc3[nH]ccc23)n1` [Compound A34], the IC50 amounted to 0.282 µM.
Molecule `Cc1ccc(S(=O)(=O)C(C)C)cc1-c1cc(N2CCOC[C@H]2C)nc(-c2ccnc3[nH]ccc23)n1` [Compound A39] registered an IC50 of 0.121 µM.
In turn, `CNc1nc2ccc(F)cc2n1-c1nc(-c2c(C(F)(F)F)nn(C3CCCNC3)c2C)cc(N2CCOC[C@@H]2C)n1` (stereo partly drawn) [Compound D34] registered an IC50 of 0.073 µM.
Molecule `Cc1ccc(S(=O)(=O)N(C)C)cc1-c1cc(N2CCOC[C@H]2C)nc(-c2ccnc3[nH]ccc23)n1` [Compound A10] gave an IC50 of 0.025 µM.
In turn, `C[C@@H]1COCCN1c1cc(-c2ccnn2C2CCCCC2)nc(-c2ccnc3[nH]ccc23)n1` [Compound A17] came in with an IC50 of 2.27 µM.
The same measure for `Cc1nn(C2CCOCC2)c(C)c1-c1cc(N2CCOC[C@H]2C)nc(-c2ccnc3[nH]ccc23)n1` [Compound A24]: 0.057 µM; for `Cc1nn(C2CCN(C)CC2)c(C)c1-c1cc(N2CCOC[C@H]2C)nc(-c2ccnc3[nH]ccc23)n1` [Compound A37]: 0.037 µM; for `CCN(C)S(=O)(=O)c1ccc(OC)c(-c2cc(N3CCOC[C@H]3C)nc(-c3ccnc4[nH]ccc34)n2)c1` [Compound A30]: 0.11 µM.
In turn, `Cc1nn(C2CCN(S(C)(=O)=O)C2)c(C)c1-c1cc(N2CCOC[C@H]2C)nc(-c2ccnc3[nH]ccc23)n1` (stereo partly drawn) [Compound A23] had an IC50 of 0.014 µM.
The value for `Cc1ccc(S(C)(=O)=O)cc1-c1cc(N2CCOC[C@H]2C)nc(-c2ccnc3[nH]ccc23)n1` [Compound A9] was 0.031 µM; that for `CCNC(=O)Nc1ccc(-c2nc(-c3c(C)nn(C)c3C)cc(N3CCOC[C@H]3C)n2)cc1` [Compound A26] was 2.17 µM.
In turn, `CCN(C)S(=O)(=O)c1ccc(C(C)C)c(-c2cc(N3CCOC[C@H]3C)nc(-c3ccnc4[nH]ccc34)n2)c1` [Compound A33] showed an IC50 of 0.936 µM. This IC50 lies about 2.3-fold lower than the previous one.
`Cc1nn(C)cc1-c1nc(-c2ccnc3[nH]ccc23)cc(N2CCOC[C@H]2C)n1` [Compound B5] yielded an IC50 of 1.61 µM.
Molecule `CCN1CCN(S(=O)(=O)c2ccc(C)c(-c3cc(N4CCOC[C@H]4C)nc(-c4ccnc5[nH]ccc45)n3)c2)CC1` [Compound A35] registered an IC50 of 0.063 µM.
The same measure for `COCCn1nc(C)c(-c2cc(N3CCOC[C@H]3C)nc(-c3ccnc4[nH]ccc34)n2)c1C` [Compound A14]: 0.571 µM.
